Where “and” joins values, the source holds several entries; their conditions need not be identical. Equal entries are not always repeated. Inconclusive results and toxic doses are left out. Cut-off read from the data, not from the text of the source: active = T/C of 150% or more; inactive = T/C below 125%.
System: L1210 leukemia ip in BDF1 mice, survival T/C
Assay: NCI In Vivo Anticancer Drug Screen. Data for tumor model L1210 Leukemia (intraperitoneal) in B6D2F1 (BDF1) mice
Conditions: endpoint: mean survival time, higher = longer survival
Summary of the method: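 Tumor cells were implanted, animals were treated, and survival was followed. The result divides the treated measurement by the vehicle-control measurement.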

[1] = dose: 100.0 mg/kg/injection, schedule: Q01DX001 (ip), vehicle: saline
[2] = dose: 200.0 mg/kg/injection, schedule: Q01DX001 (ip), vehicle: saline
[3] = dose: 400.0 mg/kg/injection, schedule: Q01DX001 (ip), vehicle: saline
[4] = dose: 100.0 mg/kg/injection, schedule: Q04DX003 (ip), vehicle: Klucel (hydroxypropylcellulose) (HPC)
[5] = dose: 200.0 mg/kg/injection, schedule: Q04DX003 (ip), vehicle: Klucel (hydroxypropylcellulose) (HPC)
[6] = dose: 400.0 mg/kg/injection, schedule: Q04DX003 (ip), vehicle: Klucel (hydroxypropylcellulose) (HPC)
[7] = dose: 100.0 mg/kg/injection, schedule: Q04DX003 (ip), vehicle: saline with Tween-80
[8] = dose: 200.0 mg/kg/injection, schedule: Q04DX003 (ip), vehicle: saline with Tween-80
[9] = dose: 50.0 mg/kg/injection, schedule: Q01DX001 (ip), vehicle: saline
[10] = dose: 100.0 mg/kg/injection, schedule: Q01DX009 (ip), vehicle: Klucel (hydroxypropylcellulose) (HPC)
[11] = dose: 200.0 mg/kg/injection, schedule: Q01DX009 (ip), vehicle: Klucel (hydroxypropylcellulose) (HPC)
[12] = dose: 400.0 mg/kg/injection, schedule: Q01DX009 (ip), vehicle: Klucel (hydroxypropylcellulose) (HPC)
[13] = dose: 100.0 mg/kg/injection, schedule: Q01DX001 (ip), vehicle: other
[14] = dose: 100.0 mg/kg/injection, schedule: Q04DX003 (ip), vehicle: other
[15] = dose: 200.0 mg/kg/injection, schedule: Q01DX001 (ip), vehicle: other

Measured: T/C

CC(C)C1NC(=O)C(Cc2c[nH]c3ccccc23)NC1=O (stereo not drawn)
inactive: [1] 101 % of control | [2] 101 % of control | [3] 91 % of control

O=C(O)C1CCC(C(=O)O)c2ccccc21 (stereo not drawn)
inactive: dose: 12.5 mg/kg/injection, schedule: Q04DX003 (ip), vehicle: Klucel (hydroxypropylcellulose) (HPC) 91 % of control | dose: 25.0 mg/kg/injection, schedule: Q04DX003 (ip), vehicle: Klucel (hydroxypropylcellulose) (HPC) 96 % of control | dose: 50.0 mg/kg/injection, schedule: Q04DX003 (ip), vehicle: Klucel (hydroxypropylcellulose) (HPC) 102 % of control | [4] 93 % of control and 91 % of control | [5] 95 % of control | [6] 88 % of control and 91 % of control

C/C=C/C(=O)Nc1cccc(OC(=O)NC(C)C)c1
inactive: [7] 95 % of control | [8] 93 % of control | dose: 400.0 mg/kg/injection, schedule: Q04DX003 (ip), vehicle: saline with Tween-80 87 % of control

C=C(C)Cc1c(C)c(Cl)cc(Cl)c1O
inactive: [9] 103 % of control | [1] 103 % of control

CC(=O)N(c1ccccc1)c1ccccc1
inactive: [10] 95 % of control | dose: 100.0 mg/kg/injection, schedule: Q04DX002 (ip), vehicle: Klucel (hydroxypropylcellulose) (HPC) 91 % of control | [11] 95 % of control | dose: 200.0 mg/kg/injection, schedule: Q04DX002 (ip), vehicle: Klucel (hydroxypropylcellulose) (HPC) 98 % of control | [12] 95 % of control | dose: 400.0 mg/kg/injection, schedule: Q04DX002 (ip), vehicle: Klucel (hydroxypropylcellulose) (HPC) 112 % of control

Cc1ccc([N+](=O)[O-])cc1NC(=O)COc1ccc(Cl)cc1Cl
inactive: [10] 96 % of control | [4] 95 % of control | [11] 91 % of control | [5] 102 % of control | [12] 94 % of control | [6] 91 % of control

O=C(C[n+]1cccc(CO)c1)c1ccc(-c2ccc(C(=O)C[n+]3cccc(CO)c3)cc2)cc1
inactive: dose: 0.05 mg/kg/injection, schedule: Q04DX003 (ip), vehicle: saline 105 % of control | dose: 0.1 mg/kg/injection, schedule: Q04DX003 (ip), vehicle: saline 100 % of control | dose: 0.2 mg/kg/injection, schedule: Q04DX003 (ip), vehicle: saline 108 % of control

C[n+]1cccc2ccccc21
inactive: dose: 12.5 mg/kg/injection, schedule: Q04DX003 (ip), vehicle: saline 96 % of control | dose: 25.0 mg/kg/injection, schedule: Q04DX003 (ip), vehicle: saline 93 % of control and 91 % of control | dose: 50.0 mg/kg/injection, schedule: Q04DX003 (ip), vehicle: saline 93 % of control and 95 % of control | dose: 100.0 mg/kg/injection, schedule: Q04DX003 (ip), vehicle: saline 93 % of control and 105 % of control

OCC(O)C(O)C(O)C(c1ccc(F)cc1)c1ccc(F)cc1 (stereo not drawn)
inactive: [9] 97 % of control | [1] 100 % of control | [2] 100 % of control | [3] 103 % of control

Cn1cnc2c1c(=N)ncn2O
inactive: [13] 103 % of control | [14] 107 % of control | [15] 103 % of control | dose: 200.0 mg/kg/injection, schedule: Q04DX003 (ip), vehicle: other 113 % of control | dose: 400.0 mg/kg/injection, schedule: Q01DX001 (ip), vehicle: other 103 % of control | dose: 400.0 mg/kg/injection, schedule: Q04DX003 (ip), vehicle: other 113 % of control

COc1c(NC(=O)CC(C)=O)cccc1NC(=O)CC(C)=O
inactive: [10] 108 % of control | [4] 100 % of control | [11] 111 % of control | [5] 103 % of control | [12] 97 % of control | [6] 94 % of control

CC(=O)OC12CCC(O1)C1C(=O)OC(=O)C12 (stereo not drawn)
inactive: [4] 101 % of control | [5] 97 % of control | [6] 97 % of control

O=c1[nH]cc(Br)c2sccc12
inactive: [7] 100 % of control | [8] 105 % of control

[Cl][Hg][Cl].c1cnccn1
inactive: dose: 1.0 mg/kg/injection, schedule: Q01DX009 (ip), vehicle: saline with Tween-80 105 % of control | dose: 2.0 mg/kg/injection, schedule: Q01DX009 (ip), vehicle: saline with Tween-80 93 % of control | dose: 4.0 mg/kg/injection, schedule: Q01DX009 (ip), vehicle: saline with Tween-80 105 % of control | dose: 8.0 mg/kg/injection, schedule: Q04DX003 (ip), vehicle: saline with Tween-80 88 % of control

CCOc1ccc(/C=C2\N=C(c3ccc([N+](=O)[O-])cc3)OC2=O)cc1
inactive: [10] 97 % of control | [11] 87 % of control | [12] 94 % of control

[N-]=[N+]=NCC1OCOC1C1OCOC1CN=[N+]=[N-] (stereo not drawn)
inactive: dose: 25.0 mg/kg/injection, schedule: Q01DX009 (ip), vehicle: saline 96 % of control | dose: 50.0 mg/kg/injection, schedule: Q01DX009 (ip), vehicle: saline 98 % of control | dose: 100.0 mg/kg/injection, schedule: Q01DX009 (ip), vehicle: saline 102 % of control

Cc1cc(=O)[nH]c(O)c1C(=O)CC(=O)c1ccccc1
inactive: [1] 97 % of control | [2] 100 % of control

CC(=O)CC(C)=NCCN=C(C)CC(C)=O.[Ni]
inactive: dose: 1.56 mg/kg/injection, schedule: Q01DX009 (ip), vehicle: gum acacia 103 % of control | dose: 3.12 mg/kg/injection, schedule: Q01DX009 (ip), vehicle: gum acacia 104 % of control | dose: 6.25 mg/kg/injection, schedule: Q01DX009 (ip), vehicle: gum acacia 100 % of control | dose: 12.5 mg/kg/injection, schedule: Q01DX009 (ip), vehicle: gum acacia 99 % of control | dose: 12.5 mg/kg/injection, schedule: Q04DX003 (ip), vehicle: gum acacia 117 % of control | dose: 25.0 mg/kg/injection, schedule: Q04DX003 (ip), vehicle: gum acacia 118 % of control | dose: 50.0 mg/kg/injection, schedule: Q04DX003 (ip), vehicle: gum acacia 103 % of control

CC1(C)OC2C3CC(C2O1)n1cnc2c(N)nc[n+](c21)C3 (stereo not drawn)
inactive: dose: 75.0 mg/kg/injection, schedule: Q01DX001 (ip), vehicle: saline 120 % of control | dose: 150.0 mg/kg/injection, schedule: Q01DX001 (ip), vehicle: saline 101 % of control | dose: 300.0 mg/kg/injection, schedule: Q01DX001 (ip), vehicle: saline 106 % of control

Cc1ccc(NC(=S)NC(=O)COc2ccccc2)cc1C
inactive: dose: 50.0 mg/kg/injection, schedule: Q01DX001 (ip), vehicle: other 92 % of control | dose: 50.0 mg/kg/injection, schedule: Q01DX009 (ip), vehicle: other 96 % of control and 108 % of control | dose: 50.0 mg/kg/injection, schedule: Q04DX002 (ip), vehicle: other 101 % of control and 116 % of control | dose: 50.0 mg/kg/injection, schedule: Q04DX003 (ip), vehicle: other 95 % of control | [13] 97 % of control | dose: 100.0 mg/kg/injection, schedule: Q01DX009 (ip), vehicle: other 100 % of control and 86 % of control | [14] 92 % of control | [15] 101 % of control | dose: 200.0 mg/kg/injection, schedule: Q01DX009 (ip), vehicle: other 96 % of control and 90 % of control

COc1ccccc1C(=O)N/N=C/c1ccncc1
inactive: [10] 94 % of control | [11] 94 % of control | [12] 97 % of control

Reference: PubChem BioAssay AID248 (DTP/NCI, 2004)
